{"source": "ChEMBL document CHEMBL4680293", "about": "“Tubulin inhibitory activity of a novel colchicine-binding compounds based on a dinaphthospiropyranran scaffold” (Bioorg Med Chem, 2021)", "note": "The source made the active and inactive calls. The rule behind the calls is not given here."}
{"molecular_target": "Tubulin (Homo sapiens) (UniProt P68371+Q9H4B7+P0DPH7+P68366+Q13509+Q71U36+P04350+Q3ZCM7+P07437+P68363+Q9BQE3+Q6PEY2+Q13885+Q9BVA1+Q9BUF5)", "assay": "Inhibition of tubulin (unknown origin) assessed as inhibition of tubulin polymerization at 10 uM measured for 50 mins by fluorescence based analysis", "type": "protein-complex assay"}
{"compound": "CC[C@]1(O)C[C@@H]2CN(CCc3c([nH]c4ccccc34)[C@@](C(=O)OC)(c3cc4c(cc3OC)N(C)[C@H]3[C@@](O)(C(=O)OC)[C@H](OC(C)=O)[C@]5(CC)C=CCN6CC[C@]43[C@@H]65)C2)C1", "inhibition": "Active"}
{"compound": "C1=C2CCC3=Cc4c(ccc5ccccc45)OC23Oc2ccc3ccccc3c21", "inhibition": "Active"}
{"compound": "C1=C2COCC3=Cc4c(ccc5ccccc45)OC23Oc2ccc3ccccc3c21", "inhibition": "Active"}
